The results in this text go back to BindingDB's records for doi:10.1021/acs.jnatprod.3c01041 (National Cancer Institute, 2024).

The term IC50 denotes the point on the concentration scale where inhibition reaches its midpoint. A high value points to a need for much substance.

Assay [1] addresses T1, Paired box protein Pax-3 (Homo sapiens, UniProt P23760). The assay can be described thus: Inhibition of PAX3-FOXO1 (unknown origin) fusion protein expressed human Rh4 cells cotransfected with ALK-Luc incubated for 24 hrs by Steady-Glo luciferase assay.
The target of assay [2] is T1, Paired box protein Pax-3. The assay can be described thus: Inhibition of PAX3-FOXO1 (unknown origin) fusion protein expressed human Rh4 cells cotransfected with CMV-Luc incubated for 24 hrs by Steady-Glo luciferase assay.

T1 sequence (P23760 whole entry, the tested form may be a part): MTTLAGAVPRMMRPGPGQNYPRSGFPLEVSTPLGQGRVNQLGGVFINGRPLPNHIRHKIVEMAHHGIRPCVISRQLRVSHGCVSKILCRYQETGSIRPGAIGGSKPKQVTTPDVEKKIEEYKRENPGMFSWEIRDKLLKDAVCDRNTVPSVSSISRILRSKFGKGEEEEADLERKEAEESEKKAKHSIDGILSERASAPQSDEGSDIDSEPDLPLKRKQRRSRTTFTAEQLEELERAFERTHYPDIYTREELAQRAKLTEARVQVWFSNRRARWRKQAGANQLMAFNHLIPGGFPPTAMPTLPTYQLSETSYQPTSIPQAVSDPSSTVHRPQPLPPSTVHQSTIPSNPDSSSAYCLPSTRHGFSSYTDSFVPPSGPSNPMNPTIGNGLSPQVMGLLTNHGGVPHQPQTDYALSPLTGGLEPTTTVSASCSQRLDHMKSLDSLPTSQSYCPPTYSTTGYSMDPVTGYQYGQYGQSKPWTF

As for `COC1=C(C)C(=O)c2c(cn(C)c(=O)c2NCCS(=O)(=O)Oc2c(C)c(OC)c(O)c3c[n+](C)ccc23)C1=O`, the IC50 on Paired box protein Pax-3 [1] was found to be 5.4 µM; against Paired box protein Pax-3 [2] it was 9.4 µM.
The like results for `COC1=C(C)C(=O)c2c(cn(C)c(=O)c2NCCS(=O)(=O)Oc2c(C)c(OC)c(O)c3c[n+](C)c(C(=O)O)cc23)C1=O` were, in that order, 5.7 µM and 9.8 µM.
Turning to `COC(=O)c1cc2c(OS(=O)(=O)CCNc3c4c(cn(C)c3=O)C(=O)C(OC)=C(C)C4=O)c(C)c(OC)c(O)c2c[n+]1C`, the IC50 was 6.4 µM against Paired box protein Pax-3 [1] and 11.8 µM against Paired box protein Pax-3 [2].
